Values quoted from earlier work as cited in PMC6154651 (Molecules : A Journal of Synthetic Chemistry and Natural …, 2017).

Assays:
FXR [1] = conditions: HepG2 cells
LCA-induced cholestasis = conditions: mice, low dose 20 mg/kg
obstructive cholestasis = conditions: bile duct-ligated mice
[2] = test system: FXR-LBD (ligand binding domain)
FXR [3] = test system: FXR; set-up: method as in PMID 16626693

CC1(C)CC[C@]2(C(=O)O)CC[C@]3(C)C(=CC[C@@H]4[C@@]5(C)CC[C@H](O)C(C)(C)[C@@H]5CC[C@]43C)[C@@H]2C1 [Compound 1, oleanolic acid]
CDCA induction of bile salt export protein (BSEP) (FXR [1]; 25 μM): partially blocked | expression of organic solute transporter (OST-β) (FXR [1]; 25 μM): did not affect | expression levels of cholesterol 7α-hydroxylase (CYP7A1) (FXR [1]): suppressed | expression of short heterodimer partner (SHP) (FXR [1]): slightly enhanced | protection against LCA-induced cholestasis (LCA-induced cholestasis): could protect | effect on obstructive cholestasis (obstructive cholestasis): attenuate obstructive cholestasis | activity of FXR-LBD induced by CDCA [2]: dose-dependently suppressed

CC1(C)CCC2(C(=O)O)CCC3(C)C(=CCC4C5(C)CCC(OC(=O)c6ccccc6C(=O)O)C(C)(C)C5CCC43C)C2C1 (stereo not drawn) [NPLC441, 3-β-(2-carboxybenzoyloxy)-oleanolic acid]
binding to retinoid X receptor-LBD (retinoid X receptor-LBD): bound strongly

C[C@@H]1O[C@@H](O[C@H]2[C@H](OC(=O)[C@]34CCC(C)(C)C[C@H]3C3=CC[C@@H]5[C@@]6(C)C[C@H](O)[C@H](O[C@@H]7O[C@H](CO)[C@@H](O)[C@H](O)[C@H]7O)C(CO)(CO)[C@@H]6CC[C@@]5(C)[C@]3(C)C[C@H]4O)OC[C@H](O)[C@@H]2O)[C@H](O)[C@H](O)[C@H]1O[C@@H]1OC[C@@H](O)[C@H](O[C@@H]2OC[C@](O)(CO)[C@H]2O)[C@H]1O [platycodin D]
activity on FXR (FXR [3]): weak activity
